In patent US20250163104A1, “MACROCYCLIC IMMUNOMODULATORS” (priority 2021, published 2025) one finds IC50 data, which are given here for 15 molecules.

Where a SMILES comes first, the peptide text is derived from it. Bridges are numbered along the chain shown (N, C = ends). [ ]: non-standard residue; d: D form. The star is where a group is joined. Bip = N[C@@H](Cc1ccc(-c2ccccc2)cc1)C(=O)O; Phe(3-Me) = Cc1cccc(C[C@H](N)C(=O)O)c1; Cha = N[C@@H](CC1CCCCC1)C(=O)O; Cit = NC(=O)NCCC[C@H](N)C(=O)O; Carboxymethyl = O=C(O)C*; Nle = CCCC[C@H](N)C(=O)O; Orn = NCCC[C@H](N)C(=O)O; Dab = NCC[C@H](N)C(=O)O; Dap = NC[C@H](N)C(=O)O

T1 sequence (Q15116 25-288): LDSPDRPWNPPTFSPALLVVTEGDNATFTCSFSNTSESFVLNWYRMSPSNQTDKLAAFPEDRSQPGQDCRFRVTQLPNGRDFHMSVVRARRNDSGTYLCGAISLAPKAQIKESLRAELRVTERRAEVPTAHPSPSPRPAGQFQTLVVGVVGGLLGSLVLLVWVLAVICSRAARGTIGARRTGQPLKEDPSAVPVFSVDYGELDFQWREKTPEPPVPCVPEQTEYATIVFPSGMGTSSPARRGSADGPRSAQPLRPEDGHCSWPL

This assay addresses T1, human PD-1 / PD-L1-Ig binding on Jurkat cell line over-expressing human PD-1 (Jurkat-PD-1) (Homo sapiens, UniProt Q15116).
T1 construct: expressed in transfected cells; host or cells: Jurkat
Briefly: Jurkat-PD-1 Cell Binding High-Content Screening Assay (CBA). Particulars: Jurkat-PD-1 cells, PE-labeled PD-L1-Ig 20 nM final; read-out: Jurkat HPD1_PDL1 IC50. It counts as cell-based. The gist of the method:
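Jurkat cells over-expressing human PD-1, in DMEM/10% FCS, pre-incubated with compound 2 h at 37° C. PE-labeled human PD-L1-Ig (20 nM final) added for 1 h; cells fixed in paraformaldehyde with Hoechst 33342 nuclear stain, washed, and bound fluorescence quantified by high-content imaging.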
As for `CCCC[C@@H]1NC(=O)[C@H](CCN)NC(=O)[C@@H](CC(C)C)NC(=O)[C@H](CCCN)NC(=O)[C@H](CCCNC(N)=O)NC(=O)[C@H](Cc2ccc(-c3ccccc3)cc2)NC(=O)[C@H](CC(C)C)NC(=O)[C@H](Cc2cccc(C)c2)NC(=O)[C@H](CC(=O)O)NC(=O)[C@H](Cc2ccc(OCC(=O)O)cc2)NC(=O)[C@H](CN)NC(=O)CSC[C@@H](C(=O)N[C@@H](C)C(N)=O)NC(=O)[C@H]([C@@H](C)O)NC(=O)[C@H](C(C)C)NC1=O` [Compound 1295] ({CH2CO}-[Dap]Y(Carboxymethyl)D[Phe(3-Me)]L[Bip][Cit][Orn][dL][Dab][Nle]VTCA-NH2; thioether N-14), the 50% inhibitory concentration (IC50) (in general, the point on the concentration scale where inhibition reaches its midpoint) turned out to be 9.8 nM.

In the case of `Cc1cccc(C[C@@H]2NC(=O)[C@H](CC(=O)O)NC(=O)[C@H](Cc3ccc(OCC(=O)O)cc3)NC(=O)[C@H](CN)NC(=O)CSC[C@@H](C(=O)N[C@@H](C)C(=O)N[C@@H](CCC(=O)O)C(N)=O)NC(=O)[C@H]([C@@H](C)O)NC(=O)[C@H](C(C)C)NC(=O)[C@H](CC3CCCCC3)NC(=O)[C@H](CCN)NC(=O)[C@@H](CC(C)C)NC(=O)[C@H](CCCN)NC(=O)[C@H](CCCNC(N)=O)NC(=O)[C@H](Cc3ccc(-c4ccccc4)cc3)NC(=O)[C@H](C(C)C)NC2=O)c1` [Compound 1296] ({CH2CO}-[Dap]Y(Carboxymethyl)D[Phe(3-Me)]V[Bip][Cit][Orn][dL][Dab][Cha]VTCAE-NH2; thioether N-14), the IC50 turned out to be 13.5 nM.

Consider `Cc1cccc(C[C@@H]2NC(=O)[C@H](CC(=O)O)NC(=O)[C@H](Cc3ccc(OCC(=O)O)cc3)NC(=O)[C@H](CN)NC(=O)CSC[C@@H](C(=O)N[C@@H](C)C(=O)N[C@@H](CCC(=O)O)C(N)=O)NC(=O)[C@H]([C@@H](C)O)NC(=O)[C@H](C(C)C)NC(=O)[C@H](CC3CCCCC3)NC(=O)[C@H](CCN)NC(=O)[C@@H](CC(C)C)NC(=O)[C@H](CCCN)NC(=O)[C@H](CCCNC(N)=O)NC(=O)[C@H](Cc3ccc(-c4ccccc4)cc3)NC(=O)[C@H](C(C)C)NC2=O)c1` [Compound 1297] ({CH2CO}-[Dap]Y(Carboxymethyl)D[Phe(3-Me)]V[Bip][Cit][Orn][dL][Dab][Cha]VTCAE-NH2; thioether N-14), for which the IC50 turned out to be 9.4 nM.

`Cc1cccc(C[C@@H]2NC(=O)[C@H](CC(=O)O)NC(=O)[C@H](Cc3ccc(OCC(=O)O)cc3)NC(=O)[C@H](CN)NC(=O)CSC[C@@H](C(=O)N[C@@H](C)C(=O)O)NC(=O)[C@H]([C@@H](C)O)NC(=O)[C@H](C(C)C)NC(=O)[C@H](CC3CCCCC3)NC(=O)[C@H](CCN)NC(=O)[C@@H](CC(C)C)NC(=O)[C@H](CCCN)NC(=O)[C@H](CCCNC(N)=O)NC(=O)[C@H](Cc3ccc(-c4ccccc4)cc3)NC(=O)[C@H](C(C)C)NC2=O)c1` [Compound 1300]: the IC50 was found to be 5 nM.

As for `Cc1cccc(C[C@@H]2NC(=O)[C@H](CC(=O)O)NC(=O)[C@H](Cc3ccc(OCC(=O)O)cc3)NC(=O)[C@H](CN)NC(=O)CSC[C@@H](C(=O)N[C@@H](CCC(=O)O)C(=O)O)NC(=O)[C@H]([C@@H](C)O)NC(=O)[C@H](C(C)C)NC(=O)[C@H](CC3CCCCC3)NC(=O)[C@H](CCN)NC(=O)[C@@H](CC(C)C)NC(=O)[C@H](CCCN)NC(=O)[C@H](CCCNC(N)=O)NC(=O)[C@H](Cc3ccc(-c4ccccc4)cc3)NC(=O)[C@H](C(C)C)NC2=O)c1` [Compound 1301] ({CH2CO}-[Dap]Y(Carboxymethyl)D[Phe(3-Me)]V[Bip][Cit][Orn][dL][Dab][Cha]VTCE-OH; thioether N-14), the concentration for half-maximal inhibition (IC50) is 5.9 nM.

As to `Cc1cccc(C[C@@H]2NC(=O)[C@H](CC(=O)O)NC(=O)[C@H](Cc3ccc(OCC(=O)O)cc3)NC(=O)[C@H](CN)NC(=O)CSC[C@@H](C(=O)N[C@@H](C)C(N)=O)NC(=O)[C@H]([C@@H](C)O)NC(=O)[C@H](C(C)C)NC(=O)[C@H](CC3CCCCC3)NC(=O)[C@H](CCN)NC(=O)[C@@H](CC(C)C)NC(=O)[C@H](CCCN)NC(=O)[C@H](CCC(=O)O)NC(=O)[C@H](Cc3ccc(-c4ccccc4)cc3)NC(=O)[C@H](C(C)C)NC2=O)c1` [Compound 1302], the half-maximal inhibitory concentration (IC50) amounted to 6.1 nM.

As for `Cc1cccc(C[C@@H]2NC(=O)[C@H](CC(=O)O)NC(=O)[C@H](Cc3ccc(OCC(=O)O)cc3)NC(=O)[C@H](CN)NC(=O)CSC[C@@H](C(=O)N[C@@H](C)C(N)=O)NC(=O)[C@H]([C@@H](C)O)NC(=O)[C@H](C(C)C)NC(=O)[C@H](CC3CCCCC3)NC(=O)[C@H](CCN)NC(=O)[C@@H](CC(C)C)NC(=O)[C@H](CCCN)NC(=O)[C@H](C(C)C)NC(=O)[C@H](Cc3ccc(-c4ccccc4)cc3)NC(=O)[C@H](CC(C)C)NC2=O)c1` [Compound 1303] ({CH2CO}-[Dap]Y(Carboxymethyl)D[Phe(3-Me)]L[Bip]V[Orn][dL][Dab][Cha]VTCA-NH2; thioether N-14), the IC50 amounted to 4.8 nM.

`CC(C)C[C@@H]1NC(=O)[C@H](Cc2c[nH]c3ccccc23)NC(=O)[C@H](CC(=O)O)NC(=O)[C@H](Cc2ccc(OCC(=O)O)cc2)NC(=O)[C@H](CN)NC(=O)CSC[C@@H](C(=O)N[C@@H](C)C(N)=O)NC(=O)[C@H]([C@@H](C)O)NC(=O)[C@H](C(C)C)NC(=O)[C@H](CC(C)C)NC(=O)[C@H](CCN)NC(=O)[C@@H](CC(C)C)NC(=O)[C@H](CCCN)NC(=O)[C@H](CCCNC(N)=O)NC(=O)[C@H](Cc2ccc(-c3ccccc3)cc2)NC1=O` [Compound 1304] ({CH2CO}-[Dap]Y(Carboxymethyl)DWL[Bip][Cit][Orn][dL][Dab]LVTCA-NH2; thioether N-14): the IC50 was 26.5 nM.

On to `Cc1cccc(C[C@@H]2NC(=O)[C@H](CC(=O)O)NC(=O)[C@H](Cc3ccc(O)cc3)NC(=O)[C@H](CC(N)=O)NC(=O)CSC[C@@H](C(=O)N[C@@H](C)C(N)=O)NC(=O)[C@H]([C@@H](C)O)NC(=O)[C@H](C(C)C)NC(=O)[C@H](CC(C)C)NC(=O)[C@H](CCN)NC(=O)[C@@H](CC(C)C)NC(=O)[C@H](CCCN)NC(=O)[C@H](CCCNC(N)=O)NC(=O)[C@H](Cc3ccc(-c4ccccc4)cc3)NC(=O)[C@H](CC(C)C)NC2=O)c1` [Compound 1305] ({CH2CO}-NYD[Phe(3-Me)]L[Bip][Cit][Orn][dL][Dab]LVTCA-NH2; thioether N-14), for which the IC50 is 11.7 nM.

As for `Cc1cccc(C[C@@H]2NC(=O)[C@H](CC(=O)O)NC(=O)[C@H](Cc3ccc(O)cc3)NC(=O)[C@H](CC(N)=O)NC(=O)CSC[C@@H](C(=O)N[C@@H](C)C(N)=O)NC(=O)[C@H]([C@@H](C)O)NC(=O)[C@H](C(C)C)NC(=O)[C@H](CC3CCCCC3)NC(=O)[C@H](CCN)NC(=O)[C@@H](CC(C)C)NC(=O)[C@H](CCCN)NC(=O)[C@H](CCCNC(N)=O)NC(=O)[C@H](Cc3ccc(-c4ccccc4)cc3)NC(=O)[C@H](CC(C)C)NC2=O)c1` [Compound 1306] ({CH2CO}-NYD[Phe(3-Me)]L[Bip][Cit][Orn][dL][Dab][Cha]VTCA-NH2; thioether N-14), the IC50 is 14.6 nM.

With `CCCC[C@@H]1NC(=O)[C@H](CCN)NC(=O)[C@@H](CC(C)C)NC(=O)[C@H](CCCN)NC(=O)[C@H](CCCNC(N)=O)NC(=O)[C@H](Cc2ccc(-c3ccccc3)cc2)NC(=O)[C@H](CC(C)C)NC(=O)[C@H](Cc2cccc(C)c2)NC(=O)[C@H](CC(=O)O)NC(=O)[C@H](Cc2ccc(O)cc2)NC(=O)[C@H](CC(N)=O)NC(=O)CSC[C@@H](C(=O)N[C@@H](C)C(N)=O)NC(=O)[C@H]([C@@H](C)O)NC(=O)[C@H](C(C)C)NC1=O` [Compound 1307] ({CH2CO}-NYD[Phe(3-Me)]L[Bip][Cit][Orn][dL][Dab][Nle]VTCA-NH2; thioether N-14), the IC50 is 37.4 nM.

With `CC(C)C[C@H]1NC(=O)[C@H](CCCN)NC(=O)[C@H](CCCNC(N)=O)NC(=O)[C@H](Cc2ccc(-c3ccccc3)cc2)NC(=O)[C@H](C(C)C)NC(=O)[C@H](Cc2c[nH]c3ccccc23)NC(=O)[C@H](CC(=O)O)NC(=O)[C@H](Cc2ccc(OCC(=O)O)cc2)NC(=O)[C@H](CN)NC(=O)CSC[C@@H](C(=O)N[C@@H](C)C(N)=O)NC(=O)[C@H]([C@@H](C)O)NC(=O)[C@H](C(C)C)NC(=O)[C@H](CC2CCCCC2)NC(=O)[C@H](CCN)NC1=O` [Compound 1308] ({CH2CO}-[Dap]Y(Carboxymethyl)DWV[Bip][Cit][Orn][dL][Dab][Cha]VTCA-NH2; thioether N-14), the IC50 was 12.6 nM.

For the molecule `Cc1cccc(C[C@@H]2NC(=O)[C@H](CC(=O)O)NC(=O)[C@H](Cc3ccc(OCC(=O)O)cc3)NC(=O)[C@H](CN)NC(=O)CSC[C@@H](C(=O)N[C@@H](C)C(N)=O)NC(=O)[C@H]([C@@H](C)O)NC(=O)[C@H](C(C)C)NC(=O)[C@H](CC3CCCCC3)NC(=O)[C@H](CCN)NC(=O)[C@@H](CC(C)C)NC(=O)[C@H](CCCN)NC(=O)[C@H](CCN)NC(=O)[C@H](Cc3ccc(-c4ccccc4)cc3)NC(=O)[C@H](C(C)C)NC2=O)c1` [Compound 1309] ({CH2CO}-[Dap]Y(Carboxymethyl)D[Phe(3-Me)]V[Bip][Dab][Orn][dL][Dab][Cha]VTCA-NH2; thioether N-14), the IC50 worked out at 48.4 nM.

As to `Cc1cccc(C[C@@H]2NC(=O)[C@H](CC(=O)O)NC(=O)[C@H](Cc3ccc(OCC(=O)O)cc3)NC(=O)[C@H](CN)NC(=O)CSC[C@@H](C(=O)N[C@@H](C)C(N)=O)NC(=O)[C@H]([C@@H](C)O)NC(=O)[C@H](C(C)C)NC(=O)[C@H](CC3CCCCC3)NC(=O)[C@H](CCN)NC(=O)[C@@H](CC(C)C)NC(=O)[C@H](CCCN)NC(=O)[C@H](CN)NC(=O)[C@H](Cc3ccc(-c4ccccc4)cc3)NC(=O)[C@H](C(C)C)NC2=O)c1` [Compound 1310] ({CH2CO}-[Dap]Y(Carboxymethyl)D[Phe(3-Me)]V[Bip][Dap][Orn][dL][Dab][Cha]VTCA-NH2; thioether N-14), the IC50 is 12 nM.

In the case of `Cc1cccc(C[C@@H]2NC(=O)[C@H](CC(=O)O)NC(=O)[C@H](Cc3ccc(OCC(=O)O)cc3)NC(=O)[C@H](CN)NC(=O)CSC[C@@H](C(=O)N[C@@H](C)C(N)=O)NC(=O)[C@H]([C@@H](C)O)NC(=O)[C@H](C(C)C)NC(=O)[C@H](CC3CCCCC3)NC(=O)[C@H](CCN)NC(=O)[C@@H](CC(C)C)NC(=O)[C@H](CCCN)NC(=O)[C@H](CCCN)NC(=O)[C@H](Cc3ccc(-c4ccccc4)cc3)NC(=O)[C@H](C(C)C)NC2=O)c1` [Compound 1311] ({CH2CO}-[Dap]Y(Carboxymethyl)D[Phe(3-Me)]V[Bip][Orn][Orn][dL][Dab][Cha]VTCA-NH2; thioether N-14), the IC50 stood at 16 nM.
